Experimental data from patent US4473583A, “Compositions containing certain derivatives of 4-phenyl-4-oxobuten-2-oic acid and methods of treatment using them” (Roussel UCLAF, priority 1981, dated 1984).

Experiments:
[1] = test system: stomach ulcers; test: anti-ulcer activity, stress ulcer (stress and cold); assay type: in vivo; settings: female rats, stress and cold (8° C., two hours), 10 mg/kg through an esophageal tube, 2 hours before stress
Experimental: (2) Determination of the anti-ulcer activity Stress Ulcer
The technique consists of inducing stomach ulcers by stress in rats (stress and cold). The technique used is described by E. C. SENAY and R. J. LEVINE, Proc. Soc. Exp. Biol. 124, 1221 (1967).
Female rats of 150 g (5 animals per lot) were used which has been fasting for 48 hours with water ad libitum and glucose solution for 8 hours. Through an esophageal tube, the animals received a test compound, or a solution of 0.5% carboxy methyl cellulose in the case of the control animals. Two hours later, the animals were bundled in a jacket of netting. Their paws were bound and the entire unit was placed in a refrigerator at 8° C. for two hours. The rats were freed and killed by ether.
Their stomachs were removed, opened along the greater curvature and examined with a binocular magnifier. The seriousness of the lesions was graded from 1 to 3 for each stomach.
For each lot of rats, the average intensity of the ulcerations was calculated. The degree of ulceration for test animals was compared with the control animals for each lot.

[2] = test system: total acidity of the gastric secretions; test: anti-gastric secretion activity (pylorus ligation, Shay technique); assay type: in vivo; settings: male rats, pylorus ligated, 10 mg/kg intraduodenally, 3 hours
Experimental: (1) Determination of the anti-gastric secretion activity
The technique used is described by H. SHAY et al. in Gastroenterology 5, 43, 1945.
Male rats were used having a weight of about 200 g (10 animals per lot), and were kept without food for 48 hours but allowed a 8% gluclose solution ad libitum. After the rats were slightly anesthetized with ether, the pylorus of each was ligated. After the end of the operation, the product to be tested in different doses or, in the case of the control animals a solution of 0.5% carboxymethyl cellulose, was administered intraduodenally, after which the abdominal incision sutured.
Three hours later, the animals were sacrified and their stomachs removed after ligating the esophagus. The gastric juice was removed and centrifuged. The volume of gastric juice obtained was then determined and the total acidity of the gastric juice was obtained by titrating a 100 μl sample of gastric juice to a pH of 7 by means of 1/10 N sodium hydroxide solution.
The percentages of the variation of the total acidity of the gastric secretions, between test animals and control animals were calculated and are set forth in the table appearing below.

[3] = acute toxicity (LD50); settings: mouse, in vivo; mice, oral
Experimental: (3) Determination of the Acute Toxicity
The LD50 was evaluated after the administration of the products orally to mice.

Compound | Anti-ulcer activity: Ulceration (% variation as compared with the controls) [1] | Anti-secretion activity: Acid Concentration (% variation as compared with the controls) [2] | LD50 [3]
O=C(O)/C=C\C(=O)c1ccccc1 [Example 3, (Z) 4-phenyl-4-oxobuten-2-oic acid] | -93% | -81% | 370 mg/kg
O=C(O)/C=C/C(=O)c1ccccc1 [Example 1, (E) 4-phenyl-4-oxobuten-2-oic acid] | -54% | -66% | 250 mg/kg
Cc1ccc(C(=O)C=CC(=O)O)cc1 [Example 2, 4-tolyl-4-oxobuten-2-oic acid] | -39% | -61% | 250 mg/kg
